Assay results taken from patent publication EP1247803A2, “Indolinone compounds suitable for modulation of protein kinases” (Sugen, Inc., priority 1996, dated 1998).

Assays:
[1] = target: T1, FLK-1 receptor (Mus musculus, UniProt P35918); assay: FLK-1 ELISA (kinase activity of the FLK-1 receptor in FLK-1/NIH3T3 cells, VEGF stimulated); format: cell-based; set-up: concentration or dose not given beside the values
T1 construct: expressed in transfected cells; host or cells: NIH3T3 C7#3
Method: An enzyme linked immunosorbent assay (ELISA) was conducted to measure the catalytic activity of the FLK-1 receptor and more specifically, the inhibition or activation of indolinone compounds on the catalytic activity of the FLK-1 receptor. Specifically, the following assay was conducted to measure catalytic activity of the FLK-1 receptor in FLK-1/NIH3T3 cells.
The materials and protocol for the FLK-1 ELISA assay are as described in International Patent Publication No. WO 96/40116, published December 19, 1996 by Tang et al.
Selected compounds were tested in the FLK-1 ELISA assay.
An ELISA assay was conducted to measure the kinase activity of the FLK-1 receptor and more specifically, the inhibition or activation of protein tyrosine kinase activity on the FLK-1 receptor. Specifically, the following assay was conducted to measure kinase activity of the FLK-1 receptor in FLK-1/NIH3T3 cells.
Materials. The following reagents and supplies were used: • a. […] Cappel goat anti-rabbit IgG (catalog no. 55641); • c. PBS (Gibco Catalog No. 450-1300EB); • d. TBSW Buffer (50 mM Tris (pH 7.2), 150 mM NaCl and 0.1% Tween-20); • e. Ethanolamine stock (10% ethanolamine (pH 7.0), stored at 4°C); • f. HNTG buffer (20mM HEPES buffer (pH 7.5), 150mM NaCl, 0.2% Triton X-100, and 10% glycerol); • g. EDTA (0.5 M (pH 7.0) as a 100X stock); • h. Sodium ortho vanadate (0.5 M as a 100X stock); • i. Sodium pyro phosphate (0.2M as a 100X stock); • j. NUNC 96 well V bottom polypropylene plates (Applied Scientific Catalog No. AS-72092); • k. NIH3T3 C7#3 Cells (FLK-1 expressing cells); • l. DMEM with 1X high glucose L Glutamine (catalog No. 11965-050); • m. FBS, Gibco (catalog no. 16000-028); • n. L-glutamine, Gibco (catalog no. 25030-016); • o. VEGF, PeproTech, Inc. (catalog no. 100-20)(kept as 1 µg/100 µl stock in Milli-Q dH2O and stored at -20°C; • p. Affinity purified anti-FLK-1 antiserum which can be obtained or purified as follows: • 1. Prepare a Tresyl-Activated Agarose/Flk-1-D column by incubating 10 ml of Tresyl-Activated Agarose with 20 mg of purified GST-Flk-1-D fusion protein in 100mM sodium bicarbonate (pH 9.6) buffer overnight at 4 °C. • 2. Wash the column once with PBS. • 3. Block the excess sites on the column with 2 M glycine for 2 hours at 4°C. • 4. Wash the column with PBS. • 5. Incubate the column with Rabbit anti-Flk-1D production bleed for 2 hours at 4 °C. • 6. Wash the column with PBS. • 7. Elute antiserum with 100 mM Citric Acid, pH3.0 and neutralize the eluate immediately with 2 M Tris, pH 9.0. • 8. Dialyize the eluate against PBS overnight at 4 °C with 3 changes of buffer (sample to buffer ratio is 1:100). • 9. Adjust the dialyized antiserum to 5% glycerol and store at -80 °C in small aliquotes. • q.
Protocol. The following protocol was used for conducting the assay: • 1. Coat Corning 96-well elisa plates with 1.0µg per well Cappel Anti-rabbit IgG antibody in 0.1M Na2CO3 pH 9.6. Bring final volume to 150 µl per well. Coat plates overnight at 4°C. Plates can be kept up to two weeks when stored at 4°C. • 2. Grow cells in Growth media(DMEM, supplemental with 2.0mM L-Glutamine, 10% FBS) in suitable culture dishes until confluent at 37°C, 5% CO2. • 3. Harvest cells by trypsinization and seed in Corning 25850 polystyrene 96-well roundbottom cell plates, 25.000 cells/well in 200µl of growth media. • 4. Grow cells at least one day at 37°C, 5% CO2. • 5. Wash cells with D-PBS 1X. • 6. Add 200µl/well of starvation media (DMEM, 2.0mM 1-Glutamine, 0.1% FBS). Incubate overnight at 37°C, 5% CO2. • 7. Dilute Compounds/Extracts 1:20 in polypropylene 96 well plates using starvation media. Dilute dimethylsulfoxide 1:20 for use in control wells. • 8. Remove starvation media from 96 well cell culture plates and add 162 µl of fresh starvation media to each well. • 9. Add 18µl of 1:20 diluted Compound/Extract dilution (from step 7) to each well plus the 1:20 dimethylsulfoxide dilution to the control wells (+/- VEGF), for a final dilution of 1:200 after cell stimulation. […]

[2] = test system: MET; assay: MET biochemical kinase assay; set-up: species or system human; concentration or dose not given beside the values
Description: A met biochemical kinase assay may be performed for met generally as described above for other kinases by substituting that or the other kinases. In particular, ELISA plates are coated with goat anti-rabbit Fc antibodies, which are used to capture commercially available (from Santa Cruz Biotechnology) rabbit polyclonal antibodies to the cytoplasmic domain of human MET. […] The chimeric receptors, or MET, from these lysates are captured on the antibody coated plates. After washing away extraneous proteins, test compounds are added and an in vitro kinase assay is performed by addition of an appropriate kinase buffer (containing ATP, divalent metal ions, etc.). Incorporation of phosphate into the captured receptors is detected with an anti-phosphotyrosine antibody conjugate with horse radish peroxidase using TMB as a substrate for colorimetric detection.

T1 sequence (P35918 20-1345): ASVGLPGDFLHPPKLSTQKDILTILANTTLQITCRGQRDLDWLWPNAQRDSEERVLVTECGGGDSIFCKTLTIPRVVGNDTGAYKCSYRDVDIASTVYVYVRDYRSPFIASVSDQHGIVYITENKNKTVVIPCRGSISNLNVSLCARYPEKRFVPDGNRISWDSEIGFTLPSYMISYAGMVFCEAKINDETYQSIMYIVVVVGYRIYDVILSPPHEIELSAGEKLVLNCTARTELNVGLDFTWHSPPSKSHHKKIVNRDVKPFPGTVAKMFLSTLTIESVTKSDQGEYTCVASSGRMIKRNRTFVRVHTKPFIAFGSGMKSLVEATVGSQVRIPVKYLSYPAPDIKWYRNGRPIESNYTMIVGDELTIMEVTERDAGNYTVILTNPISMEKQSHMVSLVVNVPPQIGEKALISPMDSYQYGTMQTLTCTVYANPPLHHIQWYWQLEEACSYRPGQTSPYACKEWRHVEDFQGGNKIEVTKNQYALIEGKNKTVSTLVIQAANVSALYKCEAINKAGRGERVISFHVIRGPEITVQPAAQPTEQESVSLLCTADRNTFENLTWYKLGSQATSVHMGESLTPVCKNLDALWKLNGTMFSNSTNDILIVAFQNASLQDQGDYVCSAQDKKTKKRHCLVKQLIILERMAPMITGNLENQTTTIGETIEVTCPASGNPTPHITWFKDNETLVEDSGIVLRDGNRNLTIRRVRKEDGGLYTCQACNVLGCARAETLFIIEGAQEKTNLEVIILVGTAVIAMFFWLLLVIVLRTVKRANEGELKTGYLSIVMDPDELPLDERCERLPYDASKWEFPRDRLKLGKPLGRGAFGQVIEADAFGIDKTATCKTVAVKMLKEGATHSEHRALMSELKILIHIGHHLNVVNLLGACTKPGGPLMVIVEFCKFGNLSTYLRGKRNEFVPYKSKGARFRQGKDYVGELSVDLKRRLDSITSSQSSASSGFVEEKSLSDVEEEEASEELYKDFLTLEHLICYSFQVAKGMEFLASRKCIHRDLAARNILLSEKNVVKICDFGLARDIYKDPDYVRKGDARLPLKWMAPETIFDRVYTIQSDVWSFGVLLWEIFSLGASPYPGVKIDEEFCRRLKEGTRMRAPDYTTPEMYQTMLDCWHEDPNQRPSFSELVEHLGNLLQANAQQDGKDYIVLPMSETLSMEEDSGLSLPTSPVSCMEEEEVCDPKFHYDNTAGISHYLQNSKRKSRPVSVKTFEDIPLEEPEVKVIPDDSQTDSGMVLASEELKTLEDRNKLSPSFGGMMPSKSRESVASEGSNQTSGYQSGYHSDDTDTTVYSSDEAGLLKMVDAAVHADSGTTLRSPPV

SMILES	Fik Kinase %Inhibition [1]	Met Kinase % Inhibition [2]
Cc1c(Br)ccc2c1C(=Cc1ccco1)C(=O)N2 [10718/C10]	-11.9%	4.4%
CNS(=O)(=O)c1ccc2c(c1)C(=CC(c1cccs1)C(F)(F)F)C(=O)N2 (stereo not shown) [10732/D02]	9.2%	50.2%
CNS(=O)(=O)c1ccc2c(c1)C(=Cc1cc(Br)c(OCc3ccccc3)c(C(C)(C)C)c1)C(=O)N2 [10732/D08]	33.3%	49.4%
CNS(=O)(=O)c1ccc2c(c1)C(=Cc1coc3ccc([N+](=O)[O-])cc3c1=O)C(=O)N2 [10731/D07]	12.3%	45.9%
Cc1c(Br)ccc2c1C(=CC(c1cccs1)C(F)(F)F)C(=O)N2 (stereo not shown) [10732/C02]	11.9%	40.1%
CNS(=O)(=O)c1ccc2c(c1)C(=Cc1cc(OC)cc(Br)c1O)C(=O)N2 [10718/D03]	1.1%	92.9%
CN1C(=O)C(=C2C(=O)Nc3ccc(CCCl)cc32)c2ccccc21 [10731/G10]	-9.0%	10.3%
CCn1c2ccccc2c2cc(C=C3C(=O)Nc4ccc(S(=O)(=O)Nc5ccc(C(F)(F)F)cc5)cc43)ccc21 [10731/E02]	11.2%	49.1%
O=C1Nc2ccc(S(=O)(=O)Nc3ccc(C(F)(F)F)cc3)cc2C1=Cc1coc2ccc([N+](=O)[O-])cc2c1=O [10731/E07]	12.6%	45.9%
Cc1cc2occ(C=C3C(=O)Nc4ccc(CCCl)cc43)c(=O)c2cc1C [10731/G03]	12.9%	33.7%
CNS(=O)(=O)c1ccc2c(c1)C(=Cc1coc3ccc(C(C)C)cc3c1=O)C(=O)N2 [10731/D05]	32.7%	92.7%
O=C1Nc2ccc(S(=O)(=O)N3CCOCC3)cc2C1=Cc1coc2ccc([N+](=O)[O-])cc2c1=O [10731/F07]	13.3%	34.7%
CCOC(=O)c1c(C)[nH]c(C=C2C(=O)Nc3ccc(S(=O)(=O)NC)cc32)c1C [10718/D02]	13.3%	32.0%
COc1ccc(C=C2C(=O)Nc3c(Br)cc(Br)cc32)cc1C(C)(C)C [10732/A05]	-3.9%	20.5%
O=C1Nc2ccc(S(=O)(=O)N3CCOCC3)cc2C1=Cc1c[nH]c(=O)[nH]c1=O [10731/F08]	9.2%	23.5%
COc1c(C(C)C)cc(C=C2C(=O)Nc3ccc(Br)c(C)c32)cc1C(C)C [10732/C03]	14.7%	14.0%
COc1ccc(C=C2C(=O)Nc3ccc(Br)c(C)c32)cc1C(C)(C)C [10732/C05]	11.2%	18.5%
CCOC(=O)c1cc(C=C2C(=O)Nc3ccc(S(=O)(=O)NC)cc32)oc1C [10718/D06]	15.8%	11.1%
COc1c(I)cc(C=C2C(=O)Nc3ccc(I)cc32)cc1C(C)(C)C [10732/B11]	9.0%	73.7%

SMILES	Fik Kinase %Inhibition [1]	Met Kinase % Inhibition [2]
CC(C)c1ccc2occ(C=C3C(=O)Nc4ccc(S(=O)(=O)N5CCOCC5)cc43)c(=O)c2c1 [10731/F05]	17.6%	84.4%
CNS(=O)(=O)c1ccc2c(c1)C(=Cc1cc(Cl)c(OC)c(C(C)(C)C)c1)C(=O)N2 [10732/D09]	15.2%	40.3%
CC(C)c1cc(C=C2C(=O)Nc3ccc(I)cc32)cc(C(C)C)c1Oc1ccccc1 [10732/B04]	-1.3%	79.5%
O=C1Nc2c(Br)cc(Br)cc2C1=CC(c1cccs1)C(F)(F)F (stereo not shown) [10732/A02]	-12.5%	53.7%
CN1C(=O)C(=C2C(=O)Nc3ccc(S(=O)(=O)N4CCOCC4)cc32)c2ccccc21 [10731/F10]	11.0%	48.1%
COc1c(Cl)cc(C=C2C(=O)Nc3ccc(Br)c(C)c32)cc1C(C)(C)C [10732/C09]	8.0%	37.9%
CNS(=O)(=O)c1ccc2c(c1)C(=Cc1coc3ccc(C)cc3c1=O)C(=O)N2 [10731/D06]	16.1%	59.7%
CN1C(=O)C(=C2C(=O)Nc3ccc(S(=O)(=O)Nc4ccc(C(F)(F)F)cc4)cc32)c2ccccc21 [10731/E10]	33.1%	35.5%
O=C1Nc2ccc(CCCl)cc2C1=Cc1coc2ccc([N+](=O)[O-])cc2c1=O [10731/G07]	31.6%	10.9%
CC(C)(C)c1cc(C=C2C(=O)Nc3ccc(I)cc32)cc(Cl)c1OCc1ccccc1 [10732/B10]	12.1%	51.5%
COc1c(I)cc(C=C2C(=O)Nc3c(Br)cc(Br)cc32)cc1C(C)(C)C [10732/A11]	-0.6%	65.3%
CCn1c2ccccc2c2cc(C=C3C(=O)Nc4ccc(CCCl)cc43)ccc21 [10731/G02]	16.8%	15.2%
O=C1Nc2ccc(I)cc2C1=CC(c1cccs1)C(F)(F)F (stereo not shown) [10732/B02]	2.9%	78.0%
Cc1c(Br)ccc2c1C(=Cc1cc(C(C)C)c(Oc3ccccc3)c(C(C)C)c1)C(=O)N2 [10732/C04]	12.8%	30.6%
CNS(=O)(=O)c1ccc2c(c1)C(=Cc1cc(Br)c(OC)c(C(C)(C)C)c1)C(=O)N2 [10732/D07]	14.7%	43.2%
CNS(=O)(=O)c1ccc2c(c1)C(=Cc1c[nH]c(=O)[nH]c1=O)C(=O)N2 [10731/D08]	25.8%	44.2%
COc1ccc2[nH]cc(C=C3C(=O)Nc4ccc(S(=O)(=O)N5CCOCC5)cc43)c2c1 [10731/F09]	2.3%	20.5%
CNS(=O)(=O)c1ccc2c(c1)C(=Cc1ccc(OCc3ccccc3)c(C(C)(C)C)c1)C(=O)N2 [10732/D06]	16.3%	24.3%
CNS(=O)(=O)c1ccc2c(c1)C(=Cc1ccc3ccccc3c1O)C(=O)N2 [10718/D04]	6.4%	92.9%
